Legend:
TOV-21G xenografts = assay: TOV-21G xenograft, sActRIIB and 5-FU chemotherapy combination; assay type: in vivo, human; conditions: nude mice; sActRIIB 10 mg/kg SC 1x/week, 5-FU 50 mg/kg IP 3 cycles, alone or together
Procedure: TOV-21G xenograft. 5×10^6 TOV-21G ovarian cancer cells were implanted subcutaneously into individual female athymic nu/nu mice (Harlan). Treatment was initiated at day 12 after tumor implantation, when the average tumor volume reached approximately 150 mm^3. The mice received PBS, sActRIIB (30 mg/kg, SC, 1×/week) or activin-A antibody (30 mg/kg, SC, 2×/week). In a separate chemotherapy combination experiment, the mice were treated with PBS, sActRIIB (10 mg/kg, SC, 1×/week), 5-FU (50 mg/kg, IP, 3 cycles, 4 daily injections per cycle) or sActRIIB and 5-FU combination at the same doses above. For all xenograft experiments, the tumor sizes were measured longitudinally by using an electronic caliper. Immediately prior to the 1st dose, the tumor-bearing mice were randomized to ensure even distribution in tumor sizes across different groups. Tumor volumes (mm^3) were calculated as tumor length (mm)×tumor width (mm)×tumor height (mm). Tumor weights were determined by necropsy.

[1] = test system: TOV-21G ovarian xenograft tumors; assay: sActRIIB and doxorubicin in TOV-21G tumor-bearing nude mice: tumor size and weight; assay type: in vivo, human; conditions: sActRIIB 10 mg/kg SC 1x/week, DOX 2 mg/kg IP 1x/week; 4-week study
Procedure: (§1) The objective of the present study was to examine the effect of pharmacological administration of sActRIIB, doxorubicin (dox), and sActRIIB plus doxorubicin, respectively, on body weight, tumor growth and muscle mass in nude mice implanted with TOV-21G ovarian xenograft tumors. Eight-week-old female Athymic nude mice were SC injected with 0.2 mL of 5×10^6 TOV-21G cells into the left site of the lower flank of the mice. After 10 days of tumor implantation, the mice were divided into 4 groups by body weight and tumor size and then treated with vehicle, sActRIIB, doxorubicin or the combination of sActRIIB and doxorubicin. In addition, a group of non-tumor bearing mice was used as normal control and received PBS.
(§2) Mice were weighed weekly. Body weight data were recorded longitudinally. Tumor size was measured longitudinally by using an electronic caliper. The following formula was used to calculate actual tumor volume (Tomayko M and Reynolds C, 1989): (Volume of a rectangular solid tumor: Tumor volume (mm^3)=length (mm)×width (mm)×height (mm) of tumor). At the end of the study, mice in all groups were subjected to terminal necropsy and lean carcass weight (excluding skin, adipose tissue, internal organs, and head) was determined by using standard anatomical dissection procedures. […] All results were expressed as the mean±SEM (standard error of the mean). […]

[2] = test system: TOV-21G ovarian xenograft tumors; assay: Activin-A antibody and doxorubicin in TOV-21G tumor-bearing nude mice: tumor size and weight; assay type: in vivo, human; conditions: activin-A antibody 20 mg/kg SC 1x/week, DOX 4 mg/kg IP 1x/week; vs vehicle-treated
Excerpt: (§3) The objective of this study was to examine the effects of pharmacological administration of activin-A antibody, doxorubicin, and activin-A antibody plus doxorubicin, on body weight, tumor growth and muscle mass in nude mice implanted with TOV-21G ovarian xenograft tumors. The activin-A antibody used was the same as described in the Materials section above. Eight-week-old female Athymic nude mice were each injected with 2.2×10^6 TOV-21G cells subcutaneously (SC) into the left site of the lower flank of the mice. On day 12 post tumor implantation, the mice were divided into 4 groups by body weight and tumor size and then treated with vehicle, activin-A antibody, doxorubicin, or the combination of activin-A antibody and doxorubicin. In addition, a group of non-tumor bearing mice was used as normal control and received PBS.
(§4) Mice were weighed weekly. Body weight data were recorded longitudinally. Tumor size was measured longitudinally by using an electronic caliper (Fred V. Fowler Company, Inc.). […] At the end of the study, mice in all groups were subjected to terminal necropsy and lean carcass weight (excluding skin, adipose tissue, internal organs, and head) was determined by using standard anatomical dissection procedures. […] All results were expressed as the mean±SEM. […]

[3] = Activin-A antibody and doxorubicin in TOV-21G tumor-bearing nude mice: body weight and muscle mass; assay type: in vivo, mouse
Excerpt: as §3, §4

[4] = sActRIIB and doxorubicin in TOV-21G tumor-bearing nude mice: body weight and muscle mass; assay type: in vivo, mouse
Procedure: as §1, §2

| SMILES | rate of tumor growth (TOV-21G xenografts) | tumor size and tumor weight vs vehicle-treated TOV-21G group [1] | tumor size and tumor weight (day 47) / tumor growth [2] | body weight ([3]; TOV-21G tumor-bearing nude mice, activin-A antibody 20 mg/kg SC 1x/week, DOX 4 mg/kg IP 1x/week) | lean carcass weight and calf muscle mass ([3]; TOV-21G-implanted nude mice, necropsy at end of 5-week experiment) | body weight ([4]; TOV-21G tumor-bearing nude mice, sActRIIB 10 mg/kg SC 1x/week, DOX 2 mg/kg IP 1x/week) | lean carcass weight and calf muscle mass ([4]; TOV-21G-implanted nude mice, necropsy at end of 4-week experiment) |
| --- | --- | --- | --- | --- | --- | --- | --- |
| O=c1[nH]cc(F)c(=O)[nH]1 [Antibody 5-FU, 5-Fluorouracil, reference compound] | decreased the rate of tumor growth significantly | – | – | – | – | – | – |
| COc1cccc2c1C(=O)c1c(O)c3c(c(O)c1C2=O)C[C@@](O)(C(=O)CO)C[C@@H]3O[C@H]1C[C@H](N)[C@H](O)[C@H](C)O1 [Doxorubicin, doxorubicin, reference compound] | – | significantly reduced tumor size and tumor weight | capable of inhibiting TOV-21G tumor growth | further decline (non-statistically significant) in body weight | no effect on the loss of lean carcass weight and calf muscle mass | further decline (non-statistically significant) in body weight | no effect on the loss of lean carcass weight and calf muscle mass |

Source: US12383572B2, “Administration of an anti-activin-a compound to a subject” (AMGEN INC., priority 2013, dated 2025)
